Experimental data reported in article PMC11345829, “Discovery of Potent Isoquinolinequinone N-Oxides to Overcome Cancer Multidrug Resistance” (Journal of Medicinal Chemistry, 2024).

Columns and labels:
Format in all cases: cell-based, human
[1] = system: NCI-H460 cells; assay: Western blot protein expression analysis
Protocol: Western blot analysis was performed to evaluate the expression of known proteins associated with cell proliferation, cell cycle, apoptosis, and DNA damage (Figure 10).
Figure 10 Effect of compound 25 on the NCI-H460 cellular expression of proteins involved in proliferation, cell death and DNA damage, analyzed by Western Blotting. […] (B) Graphical representation of the expression of proteins analyzed. β-actin was used as loading control. Results are the mean ± SEM from 3 independent experiments. * p ≤ 0.05, ** p ≤ 0.01 when comparing DMSO vs compound treatment.
After this treatment, cells were centrifuged at 1200 rpm for 5 min at 4 °C, and then lysed in Wynman’s buffer, as previously described,[79] containing EDTA-free protease (Roche, Basel, Switzerland) and phosphatase inhibitors (Merck Life Science) for 30 min with agitation and at 4 °C. Protein lysates were obtained after centrifugation at 13 000 rpm, for 10 min at 4 °C, and stored at −20 °C until used. A modified Lowry protocol, DC Protein assay kit (Bio-Rad, Hercules, California, USA), was used to quantify the total protein content (using a BSA standard calibration curve). The absorbance was analyzed with the Gen5 software on the microplate reader Synergy Mx, […].
Then 20 μg of protein per treatment condition was loaded and separated in 12% SDS-PAGE gels and electrophoretically transferred into nitrocellulose membranes (GE Healthcare Life Science, Chalfont St Giles, UK) for 2 h using a Mini Trans-Blot Cell system (Bio-Rad). The membranes were then stained with Ponceau S solution (PanReac AppliChem, Barcelona, Spain) to confirm that proper protein transfer occurred. Then, the membranes were blocked in Tris-buffered saline solution (TBS) pH 7.4 containing 5% (w/v) nonfat dry milk (Molico, Nestlé, Vevey, Switzerland) or 5% (w/v) BSA for 2 h at RT. The membranes were incubated for 90 min at RT with the following primary antibodies: caspase-3 (1:200; sc-56053), cyclin D1 (1:200; sc-8396), cyclin E (1:100; sc-377100), p21 (1:200; sc-6246), p53 (1:200; sc-126), PARP-1 (1:200; sc-8007), p-Histone H2A.X (1:200; sc-517348), TP53BP1 (1:100; sc-515841), and β-actin (1:200; sc-13118) from Santa Cruz Biotechnology, Dallas, Texas, USA. Following washing steps in TBS-T, the membranes were incubated with their respective secondary antibodies, antimouse IgG horseradish peroxidase (HRP) (Cytiva, Marlborough, Massachusetts, USA) or antirabbit IgG-HRP (Cytiva) for 1 h at RT in an orbital shaker. […] The signal was detected with a Fuji Medical Film Processor (FPM-100A model), and the immunoblots were digitalized using the GS-800 calibrated densitometer (Bio-Rad). Band quantification was carried out with Software Image Lab version 6.0.1 (Bio-Rad), and the molecular weight of protein bands were estimated by comparison with the bands from a protein marker (PageRuler Plus Prestained Protein Ladder, 10−250 kDa, Thermo Fisher Scientific).

[2] = system: NCI-H460, NCI-H460/R, DLD1 and DLD1-TxR spheroids; assay: Spheroid morphology (AnaSP image analysis); conditions: 48 h; GI50 and 2 × GI50
Protocol: Spheroid formation was conducted in 12-series agarose 3D Petri Dish micromolds (MicroTissues Technology, MicroTissues Inc., Sigma-Aldrich). The agarose micromolds were prepared using 1% agarose in a 0.9% NaCl solution and then placed in 12-well plates and equilibrated with RPMI supplemented with 10% FBS for at least 2 h before cell seeding. Cell suspensions corresponding to 500 cells per spheroid of the NSCLC cell lines (NCI-H460 and NCI-H460/R), and 1000 cells per spheroid of the colorectal cancer cell lines (DLD1 and DLD1-TxR) were seeded in the corresponding micromolds. The choice of cell seeding concentration was based on a previous optimization assay (data not shown), ensuring that at the end of the assay the spheroids would have a size of around 400 μm. A 20 min incubation period was used for cells to settle into the micromolds and additional medium was finally added to the wells. Spheroid formation was monitored with the Leica DMi1 microscope. […] At the end of the treatment, images from at least 8 different spheroids per condition were captured on the Leica Dmi1 microscope, and posteriorly analyzed with the automated open-source software AnaSP.[82] Spheroid parameters, such as equivalent diameter, circularity, and compactness, were calculated.
S3.6 Effect of 25 on spheroids from NSCLC and colorectal cancer (Figure S67) […]
2GI50 concentrations previously determined in a 2D setting. […]

[3] = system: NCI-H460 cells; assay: Alkaline Comet assay (DNA damage); conditions: 48 h; 2 × GI50; preliminary, data not shown
Protocol: Hydrogen peroxide (Sigma-Aldrich) was used as a positive control (50 μM). Harvested cells were resuspended in 0.5% low melting point agarose (Thermo Fisher Scientific) and poured onto slides precoated with 1% normal melting point agarose (Sigma-Aldrich). Cells were then lysed with ice-cold lysis buffer [100 mM Na2EDTA (Sigma-Aldrich), […] (Sigma-Aldrich), 10 mM Tris-Base (Sigma-Aldrich), pH 10.0, 1% and Triton X-100 (Sigma-Aldrich)) for 2 h in the dark at 4 °C. Then, after two washes with distilled water, slides were placed on an electrophoresis tank filled with electrophoresis buffer [300 mM NaOH (Sigma-Aldrich), 1 mM Na2EDTA; pH 13.0] and incubated for 40 min to allow DNA to unwind. Electrophoresis was carried out for 20 min at 32 V. Then slides were immersed twice in pure ethanol and allowed to dry at RT. Slides were stained with SyberGold staining solution (Invitrogen) in Tris-EDTA buffer [10 mM Tris-HCl (Sigma-Aldrich) and 1 mM EDTA (Sigma-Aldrich); pH 7.5] for 30 min with agitation and protected from light. In the end, slides washed and dried were visualized on a Zeiss Axio Imager Z1 microscope, equipped with the Axiovision 4.9 software.

COC(=O)c1c2c(c[n+]([O-])c1C)C(=O)C=C(NCc1ccccc1)C2=O [Compound 25]
cyclin D1 expression ([1]; 48 h): increased the expression of cyclin D1 (although not statistically significantly) | p53 expression ([1]; 48 h): slightly increased the expression of p53, although not statistically significant | PARP-1 expression ([1]; 48 h, 0.35 and 0.7 μM): does not alter the expression levels of PARP-1 | p21 expression ([1]; 48 h, 2 × GI50): clearly increased the expression of p21 | procaspase-3 expression ([1]; 48 h, both 0.35 and 0.7 μM): significant decrease in procaspase-3 | TP53BP1 and p-histone H2A.X expression ([1]; higher concentration tested, not statistically significant): increased the expression levels of TP53BP1 and of the p-histone H2A.X | p62, LC3-I and LC3-II expression ([1]; preliminary, data not shown): did not alter the expression levels of p62, LC3-I. and LC3-II | spheroid morphological properties (diameter, compactness, circularity) [2]: did not display statistical differences in the AnaSP-calculated morphological properties | DNA damage [3]: did not increase DNA damage
